Laboratory results: ChEMBL document CHEMBL1121629, “1-(Aminoalkyl)-6-aryl-4-H-s-triazolo[4,3-a][1,4]benzodiazepines with antianxiety and antidepressant activity” (1980)

Tests used:
Type in all cases: functional
[1] = species: Mus musculus; experiment: Tested for antagonism of oxotremorine hypothermia (OX) in mice
[2] = species: Mus musculus; experiment: Tested for potentiation of yohimbine toxicity in aggregated mice(Y)
[3] = species: Mus musculus; experiment: Tested for antagonism of pentylenetetrazole-induced clonic convulsions (P) in mice
[4] = species: Mus musculus; experiment: Tested for antagonism of bicuculline-induced tonic-extensor convulsions (B) in mice
[5] = species: Mus musculus; experiment: Prolongation of hypoxic survival time (HS) in mice
[6] = species: Mus musculus; experiment: Tested for stereotyped gnawing and licking behavior of mice pretreated with apomorphine (AG)
[7] = species: Mus musculus; experiment: Tested for antagonism of nicotine-induced death (D) in mice
[8] = species: Mus musculus; experiment: Tested for potentiation of gamma-butyrolactone induced sleep (gamma-B) in mice
[9] = species: Mus musculus; experiment: Tested for antagonism of nicotine-induced tonic extensor convulsions (TE) in mice

Row | Structure (SMILES) | ED50 [1] [mg/kg] | ED50 [2] [mg/kg] | ED50 [3] [mg/kg] | ED50 [4] [mg/kg] | ED50 [5] [mg/kg] | ED50 [6] [mg/kg] | ED50 [7] [mg/kg] | ED50 [8] [mg/kg] | ED50 [9] [mg/kg]
1 | CN(C)Cc1nnc2n1-c1ccccc1C(c1ccccc1)=NC2 | 12.5 | 35.4 | 6.2 | 50 | > 50 | 3.1 | 2.8 | 6.2 | 2.5
2 | CCN(CC)CCCc1nnc2n1-c1ccc(Cl)cc1C(c1ccccc1)=NC2 | 31.6 | 56 | > 100 | > 100 | > 50 | 100 | 13 | > 100 | 11
3 | CN(C)CCCc1nnc2n1-c1ccc(Cl)cc1C(c1ccccc1)=NC2 | 75 | > 100 | 13.3 | 56 | > 50 | 42 | 10 | 36.6 | 10
4 | C=CCNCc1nnc2n1-c1ccc(Cl)cc1C(c1ccccc1)=NC2 | > 50 | > 50 | 3.7 | 3.1 | 6 | > 50 | 0.28 | 1.9 | 0.55
5 | CN(Cc1nnc2n1-c1ccc(Cl)cc1C(c1ccccc1)=NC2)C1CC1 | > 50 | > 50 | 3.7 | 3.1 | 6 | > 50 | 0.28 | 1.9 | 0.55
6 | CN(C)CCc1nnc2n1-c1ccc(Cl)cc1C(c1ccccc1Cl)=NC2 | > 50 | 29.7 | 0.3 | 0.5 | 1.3 | 6.3 | 0.28 | 0.4 | 0.28
7 | CC(N)Cc1nnc2n1-c1ccc(Cl)cc1C(c1ccccc1)=NC2 (stereo not drawn) | 4.4 | 21 | > 50 | > 50 | > 50 | 25 | 32 | 35 | 18
8 | C=CCN(C)Cc1nnc2n1-c1ccc(Cl)cc1C(c1ccccc1)=NC2 | > 50 | > 50 | 4.4 | 3.7 | > 50 | > 50 | 1.1 | 1.6 | 1.1
9 | C#CCN(C)Cc1nnc2n1-c1ccc(Cl)cc1C(c1ccccc1Cl)=NC2 | > 50 | > 50 | 0.021 | 0.1 | 0.4 | 21 | 0.045 | 0.1 | 0.036
10 | NOCc1nnc2n1-c1ccc(Cl)cc1C(c1ccccc1)=NC2 | 12.5 | > 50 | 0.2 | 0.2 | 0.7 | 42 | 0.08 | 0.84 | 0.1
11 | CN(C)Cc1nnc2n1-c1ccc(Cl)cc1C(c1ccccc1Cl)=NC2 | > 30 | > 30 | 0.1 | 0.8 | 0.1 | 17.8 | 0.06 | 0.3 | 0.06
12 | CN(C)CCc1nnc2n1-c1ccc(Cl)cc1C(c1ccccc1)=NC2 | 6 | 30 | 25 | 21 | > 20 | 28 | 2.5 | 15 | 2.8
